According to PubChem BioAssay (NCI):
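Five compound concentrations were applied to cells in 96-well plates for 48 hours; endpoints were derived by simple linear interpolation of the resulting dose-response curve. Here, GI50 denotes the concentration required for 50% inhibition of growth. At the TGI there is no net growth.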

What was measured:
Assay in all cases: inhibition of tumour cell growth, NCI panel, 48 h
786-0 renal = tested on: 786-0 renal
A498 renal = tested on: A498 renal
ACHN renal = tested on: ACHN renal
BT-549 breast = tested on: BT-549 breast
CAKI-1 renal = tested on: CAKI-1 renal
CCRF-CEM leukemia = tested on: CCRF-CEM leukemia
COLO 205 colon = tested on: COLO 205 colon
EKVX NSCLC = tested on: EKVX NSCLC
HCC-2998 colon = tested on: HCC-2998 colon
HL-60(TB) leukemia = tested on: HL-60(TB) leukemia
HOP-62 NSCLC = tested on: HOP-62 NSCLC
HOP-92 NSCLC = tested on: HOP-92 NSCLC
HS 578T breast = tested on: HS 578T breast
HT29 colon = tested on: HT29 colon
IGROV1 ovarian = tested on: IGROV1 ovarian
K-562 leukemia = tested on: K-562 leukemia
KM12 colon = tested on: KM12 colon
LOX IMVI melanoma = tested on: LOX IMVI melanoma
MALME-3M melanoma = tested on: MALME-3M melanoma
MCF7 breast = tested on: MCF7 breast
MOLT-4 leukemia = tested on: MOLT-4 leukemia
NCI-H226 lung = tested on: NCI-H226 lung
NCI-H23 lung = tested on: NCI-H23 lung
NCI-H460 lung = tested on: NCI-H460 lung
NCI-H522 lung = tested on: NCI-H522 lung
OVCAR-3 ovarian = tested on: OVCAR-3 ovarian
OVCAR-4 ovarian = tested on: OVCAR-4 ovarian
OVCAR-5 ovarian = tested on: OVCAR-5 ovarian
OVCAR-8 ovarian = tested on: OVCAR-8 ovarian
PC-3 prostate = tested on: PC-3 prostate
RXF 393 renal = tested on: RXF 393 renal
SF-268 CNS = tested on: SF-268 CNS
SF-295 CNS = tested on: SF-295 CNS
SF-539 CNS = tested on: SF-539 CNS
SK-MEL-2 melanoma = tested on: SK-MEL-2 melanoma
SK-MEL-28 melanoma = tested on: SK-MEL-28 melanoma
SK-MEL-5 melanoma = tested on: SK-MEL-5 melanoma
SK-OV-3 ovarian = tested on: SK-OV-3 ovarian
SN12C renal = tested on: SN12C renal
SNB-19 CNS = tested on: SNB-19 CNS
SNB-75 CNS = tested on: SNB-75 CNS
SR leukemia = tested on: SR leukemia
T-47D breast = tested on: T-47D breast
TK-10 renal = tested on: TK-10 renal
U251 CNS = tested on: U251 CNS
UACC-257 melanoma = tested on: UACC-257 melanoma
UACC-62 melanoma = tested on: UACC-62 melanoma

ClC(Cl)c1nc(-c2ccccc2)n2nc(-c3ccccc3)cc2n1
GI50 (786-0 renal): 8.7 µM | TGI (786-0 renal): > 100 µM | GI50 (A498 renal): 1310 nM | TGI (A498 renal): 2760 nM | GI50 (ACHN renal): 572 nM | TGI (ACHN renal): 3.1 µM | GI50 (BT-549 breast): > 100 µM | TGI (BT-549 breast): > 100 µM | GI50 (CAKI-1 renal): 1600 nM | TGI (CAKI-1 renal): 7.13 µM | GI50 (CCRF-CEM leukemia): > 100 µM | TGI (CCRF-CEM leukemia): > 100 µM | GI50 (COLO 205 colon): 778 nM | TGI (COLO 205 colon): 3.42 µM | GI50 (EKVX NSCLC): 1940 nM | TGI (EKVX NSCLC): 5.75 µM | GI50 (HCC-2998 colon): 573 nM | TGI (HCC-2998 colon): 2050 nM | GI50 (HL-60(TB) leukemia): 1650 nM | TGI (HL-60(TB) leukemia): 7.69 µM | GI50 (HOP-62 NSCLC): 586 nM | TGI (HOP-62 NSCLC): 5.6 µM | GI50 (HOP-92 NSCLC): 1410 nM | TGI (HOP-92 NSCLC): 5.9 µM | GI50 (HS 578T breast): 1910 nM | TGI (HS 578T breast): 6.46 µM | GI50 (HT29 colon): 442 nM | TGI (HT29 colon): > 100 µM | GI50 (IGROV1 ovarian): 3.06 µM | TGI (IGROV1 ovarian): > 100 µM | GI50 (K-562 leukemia): 2590 nM | TGI (K-562 leukemia): > 100 µM | GI50 (KM12 colon): 696 nM | TGI (KM12 colon): 2380 nM | GI50 (LOX IMVI melanoma): > 100 µM | TGI (LOX IMVI melanoma): > 100 µM | GI50 (MALME-3M melanoma): 3.3 µM | TGI (MALME-3M melanoma): > 100 µM | GI50 (MCF7 breast): 1080 nM | TGI (MCF7 breast): > 100 µM | GI50 (MOLT-4 leukemia): 3.33 µM | TGI (MOLT-4 leukemia): > 100 µM | GI50 (NCI-H226 lung): 48 µM | TGI (NCI-H226 lung): > 100 µM | GI50 (NCI-H23 lung): 1420 nM | TGI (NCI-H23 lung): 4.09 µM | GI50 (NCI-H460 lung): 411 nM | TGI (NCI-H460 lung): 1870 nM | GI50 (NCI-H522 lung): 3.63 µM | TGI (NCI-H522 lung): > 100 µM | GI50 (OVCAR-3 ovarian): 1040 nM | TGI (OVCAR-3 ovarian): 2680 nM | GI50 (OVCAR-4 ovarian): 1650 nM | TGI (OVCAR-4 ovarian): 5.64 µM | GI50 (OVCAR-5 ovarian): 2310 nM | TGI (OVCAR-5 ovarian): 6.44 µM | GI50 (OVCAR-8 ovarian): 1730 nM | TGI (OVCAR-8 ovarian): > 100 µM | GI50 (PC-3 prostate): 1660 nM | TGI (PC-3 prostate): 4.73 µM | GI50 (RXF 393 renal): 533 nM | TGI (RXF 393 renal): 2380 nM | GI50 (SF-268 CNS): 2280 nM | TGI (SF-268 CNS): > 100 µM | GI50 (SF-295 CNS): 1830 nM | TGI (SF-295 CNS): 5.66 µM | GI50 (SF-539 CNS): 1780 nM | TGI (SF-539 CNS): 5.57 µM | GI50 (SK-MEL-2 melanoma): 31.6 µM | TGI (SK-MEL-2 melanoma): > 100 µM | GI50 (SK-MEL-28 melanoma): 1650 nM | TGI (SK-MEL-28 melanoma): 3.1 µM | GI50 (SK-MEL-5 melanoma): > 100 µM | TGI (SK-MEL-5 melanoma): > 100 µM | GI50 (SK-OV-3 ovarian): 2700 nM | TGI (SK-OV-3 ovarian): 9.61 µM | GI50 (SN12C renal): > 100 µM | TGI (SN12C renal): > 100 µM | GI50 (SNB-19 CNS): 1550 nM | TGI (SNB-19 CNS): 6.85 µM | GI50 (SNB-75 CNS): 1120 nM | TGI (SNB-75 CNS): 5.24 µM | GI50 (SR leukemia): 1020 nM | TGI (SR leukemia): 5.61 µM | GI50 (T-47D breast): 2130 nM | TGI (T-47D breast): > 100 µM | GI50 (TK-10 renal): 1870 nM | TGI (TK-10 renal): 5.7 µM | GI50 (U251 CNS): 758 nM | TGI (U251 CNS): 6.44 µM | GI50 (UACC-257 melanoma): 2100 nM | TGI (UACC-257 melanoma): 5.19 µM | GI50 (UACC-62 melanoma): 3.5 µM | TGI (UACC-62 melanoma): > 100 µM
